Source: PMC7180638, “Synthesis of Pyrrolidine Monocyclic Analogues of Pochonicine and Its Stereoisomers: Pursuit of Simplified Structures and Potent β-N-Acetylhexosaminidase Inhibition” (Molecules, 2020)
Where a name gives a salt, the structure may show the parent alone. Read-outs that look alike come from different tables or passages of the source.

Legend:
Format in all cases: biochemical
α-Glucosidase (Rice) = biological target: T1, α-Glucosidase (Rice) (Oryza sativa subsp. japonica, UniProt Q653V7); assay: α-Glucosidase (rice) inhibition
T1 construct: purchased Sigma-Aldrich Chemical Co
Description: (§1) With rat intestinal maltase as an exception, other enzymes were purchased from Sigma-Aldrich Chemical Co. (St. Louis, MO, USA). Brush border membranes prepared from rat small intestine according to the method of Kessler et al. were assayed at pH 6.8 for rat intestinal maltase using maltose. The released D-glucose was determined colorimetrically using the Glucose CII-test Wako (Wako Pure Chemical Ind.; Osaka, Japan). Other glycosidase activities were determined using an appropriate p-nitrophenyl glycoside as substrate in a buffer solution at the optimal pH value of each enzyme. The reaction was stopped by adding 400 mM Na2CO3. The released p-nitrophenol was measured spectrometrically at 400 nm.

Rat intestinal maltase = Rat intestinal maltase inhibition; conditions: α-Glucosidase
Description: as §1

β-Glucosidase (Almond) = assay: β-Glucosidase (almond) inhibition
Description: as §1

[1] = biological target: β-Glucosidase (Bovine liver); assay: β-Glucosidase (bovine liver) inhibition
Description: as §1

[2] = biological target: T2, α-Galactosidase (Coffee beans) (Coffea arabica, UniProt Q42656); assay: α-Galactosidase (coffee beans) inhibition
T2 construct: purchased Sigma-Aldrich Chemical Co
Description: as §1

β-Mannosidase (Snail) = assay: β-Mannosidase (snail) inhibition
Description: as §1

[3] = biological target: T3, Amyloglucosidase (A. niger) (Aspergillus niger, UniProt P69328); assay: Amyloglucosidase (A. niger) inhibition
T3 construct: purchased Sigma-Aldrich Chemical Co
Description: as §1

[4] = biological target: T4, β-Glucuronidase (Bovine liver) (Bos taurus, UniProt A3KMY8); assay: β-Glucuronidase (bovine liver) inhibition
T4 construct: purchased Sigma-Aldrich Chemical Co; host or cells: bovine liver
T4 sequence (A3KMY8 1-652): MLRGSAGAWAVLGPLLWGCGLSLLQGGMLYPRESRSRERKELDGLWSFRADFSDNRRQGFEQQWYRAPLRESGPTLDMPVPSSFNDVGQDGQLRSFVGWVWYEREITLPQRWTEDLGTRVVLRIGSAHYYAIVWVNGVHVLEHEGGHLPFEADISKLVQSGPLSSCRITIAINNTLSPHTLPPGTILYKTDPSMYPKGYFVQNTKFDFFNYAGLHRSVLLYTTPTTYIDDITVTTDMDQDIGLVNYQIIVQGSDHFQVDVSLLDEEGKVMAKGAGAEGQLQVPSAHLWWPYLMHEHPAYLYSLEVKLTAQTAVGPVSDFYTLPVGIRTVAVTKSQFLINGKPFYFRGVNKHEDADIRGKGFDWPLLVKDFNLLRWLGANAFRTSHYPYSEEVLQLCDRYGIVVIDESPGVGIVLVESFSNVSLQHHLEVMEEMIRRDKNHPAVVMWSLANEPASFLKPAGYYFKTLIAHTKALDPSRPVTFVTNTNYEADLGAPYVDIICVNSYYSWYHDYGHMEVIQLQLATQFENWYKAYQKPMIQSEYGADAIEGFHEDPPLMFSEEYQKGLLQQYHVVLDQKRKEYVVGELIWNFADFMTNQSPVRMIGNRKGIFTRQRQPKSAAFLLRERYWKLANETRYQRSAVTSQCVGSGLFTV
Description: as §1

[5] = biological target: β-N-Acetylhexosaminidase (Bovine liver); assay: β-N-Acetylhexosaminidase (bovine liver) inhibition; conditions: for IC50: β-N-Acetylhexosaminidase (β-GlcNAcase)
Description: as §1

[6] = biological target: β-N-Acetylhexosaminidase (Jack bean); assay: β-N-Acetylhexosaminidase (Jack bean) inhibition; conditions: β-N-Acetylhexosaminidase (β-GlcNAcase), read-out: IC50
Description: as §1

[7] = biological target: T5, α-N-Acetylgalactosaminidase (Chicken liver) (Gallus gallus, UniProt Q90744); assay: α-N-Acetylgalactosaminidase (chicken liver) inhibition
T5 construct: purchased Sigma-Aldrich Chemical Co; host or cells: chicken liver
T5 sequence (Q90744 1-405): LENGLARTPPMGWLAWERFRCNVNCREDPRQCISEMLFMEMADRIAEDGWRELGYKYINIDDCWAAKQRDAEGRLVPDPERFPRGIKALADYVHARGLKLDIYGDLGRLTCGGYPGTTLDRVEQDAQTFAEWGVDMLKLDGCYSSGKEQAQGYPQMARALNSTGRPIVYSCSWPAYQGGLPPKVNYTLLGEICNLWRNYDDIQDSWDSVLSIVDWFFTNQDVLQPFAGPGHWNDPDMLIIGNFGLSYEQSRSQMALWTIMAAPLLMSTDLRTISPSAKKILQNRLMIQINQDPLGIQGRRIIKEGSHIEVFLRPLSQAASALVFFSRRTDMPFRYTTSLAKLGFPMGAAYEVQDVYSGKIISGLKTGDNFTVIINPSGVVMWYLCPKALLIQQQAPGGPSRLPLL
Description: as §1

[8] = biological target: T6, β-Galactosidase (Bovine liver) (Bos taurus, UniProt F1MNT6); assay: β-Galactosidase (bovine liver) inhibition
T6 sequence (F1MNT6 1-469): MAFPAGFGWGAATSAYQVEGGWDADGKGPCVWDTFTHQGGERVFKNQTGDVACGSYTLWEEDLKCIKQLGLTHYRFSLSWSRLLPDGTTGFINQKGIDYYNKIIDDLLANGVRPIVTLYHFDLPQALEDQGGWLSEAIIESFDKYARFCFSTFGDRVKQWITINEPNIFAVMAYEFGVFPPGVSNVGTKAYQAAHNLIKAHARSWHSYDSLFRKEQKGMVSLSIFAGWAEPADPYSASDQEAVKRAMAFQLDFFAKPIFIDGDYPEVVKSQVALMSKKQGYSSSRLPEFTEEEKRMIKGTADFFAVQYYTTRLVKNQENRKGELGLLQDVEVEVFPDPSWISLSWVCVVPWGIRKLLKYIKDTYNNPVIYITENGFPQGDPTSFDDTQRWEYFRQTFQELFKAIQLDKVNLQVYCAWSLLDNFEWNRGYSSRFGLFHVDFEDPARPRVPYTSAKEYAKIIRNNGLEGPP
Description: as §1

[9] = 1000 μM, read-out: Inhibition % at 1000 μM

T3 sequence (P69328 25-640): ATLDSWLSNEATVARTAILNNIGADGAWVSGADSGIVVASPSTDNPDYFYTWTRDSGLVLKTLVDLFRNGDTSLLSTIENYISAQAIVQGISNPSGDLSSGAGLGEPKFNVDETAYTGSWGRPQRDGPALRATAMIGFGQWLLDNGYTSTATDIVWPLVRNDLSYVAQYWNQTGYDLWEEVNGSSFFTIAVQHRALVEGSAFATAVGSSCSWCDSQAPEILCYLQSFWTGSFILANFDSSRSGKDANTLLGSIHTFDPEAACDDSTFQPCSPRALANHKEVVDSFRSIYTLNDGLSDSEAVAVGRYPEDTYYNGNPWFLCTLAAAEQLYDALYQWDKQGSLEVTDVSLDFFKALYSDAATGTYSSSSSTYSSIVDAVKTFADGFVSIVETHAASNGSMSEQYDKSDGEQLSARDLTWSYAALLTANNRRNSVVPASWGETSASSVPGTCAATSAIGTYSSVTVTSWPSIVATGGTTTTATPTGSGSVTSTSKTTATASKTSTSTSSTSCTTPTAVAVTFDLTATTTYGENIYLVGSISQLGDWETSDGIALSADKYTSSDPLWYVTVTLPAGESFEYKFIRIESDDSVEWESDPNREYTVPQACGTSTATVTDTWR
T2 sequence (Q42656 16-378): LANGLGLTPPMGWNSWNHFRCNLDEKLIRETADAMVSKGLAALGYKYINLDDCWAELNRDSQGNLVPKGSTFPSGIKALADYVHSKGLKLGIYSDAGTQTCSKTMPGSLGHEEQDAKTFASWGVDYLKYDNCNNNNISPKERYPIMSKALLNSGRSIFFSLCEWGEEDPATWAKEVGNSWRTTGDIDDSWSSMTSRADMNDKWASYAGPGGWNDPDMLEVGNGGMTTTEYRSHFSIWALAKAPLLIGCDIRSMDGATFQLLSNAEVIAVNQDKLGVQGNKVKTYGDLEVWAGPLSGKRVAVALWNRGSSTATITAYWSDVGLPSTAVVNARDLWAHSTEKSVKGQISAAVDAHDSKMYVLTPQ
T1 sequence (Q653V7 34-885): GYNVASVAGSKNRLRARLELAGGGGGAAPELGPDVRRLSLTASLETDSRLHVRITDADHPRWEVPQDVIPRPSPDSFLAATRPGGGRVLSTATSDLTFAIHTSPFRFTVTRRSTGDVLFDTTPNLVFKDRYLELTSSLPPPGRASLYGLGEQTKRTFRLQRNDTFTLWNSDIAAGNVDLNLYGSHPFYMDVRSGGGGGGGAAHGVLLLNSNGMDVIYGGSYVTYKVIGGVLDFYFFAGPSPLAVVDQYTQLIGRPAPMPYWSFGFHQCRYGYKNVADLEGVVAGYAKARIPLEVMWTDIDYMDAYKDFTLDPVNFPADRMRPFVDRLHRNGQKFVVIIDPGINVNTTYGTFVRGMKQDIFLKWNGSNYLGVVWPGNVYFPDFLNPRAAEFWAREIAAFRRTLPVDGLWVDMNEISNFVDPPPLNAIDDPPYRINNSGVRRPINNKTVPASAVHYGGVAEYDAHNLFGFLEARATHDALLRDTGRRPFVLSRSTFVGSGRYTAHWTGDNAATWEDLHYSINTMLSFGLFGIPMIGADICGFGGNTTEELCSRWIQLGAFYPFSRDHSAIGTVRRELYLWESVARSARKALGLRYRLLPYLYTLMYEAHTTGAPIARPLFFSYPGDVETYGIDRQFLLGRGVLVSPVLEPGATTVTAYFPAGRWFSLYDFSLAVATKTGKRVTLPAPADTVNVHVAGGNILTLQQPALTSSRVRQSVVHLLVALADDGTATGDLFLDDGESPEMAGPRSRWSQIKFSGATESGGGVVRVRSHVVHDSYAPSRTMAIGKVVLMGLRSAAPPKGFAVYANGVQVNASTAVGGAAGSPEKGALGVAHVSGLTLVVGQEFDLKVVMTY

Structure (SMILES)	IC50 (α-Glucosidase (Rice))	IC50 (Rat intestinal maltase; read-out: IC50)	IC50 [1]	Inhibition % at 1000 μM [1]	inhibition at 1000 µM [2, 9]	inhibition at 1000 µM ([2]; read-out: IC50)	inhibition at 1000 µM [3, 9]	inhibition at 1000 µM ([3]; read-out: IC50)	inhibition at 1000 µM [4, 9]	inhibition at 1000 µM ([4]; read-out: IC50)	IC50 ([5]; read-out: IC50)	IC50 [6]	inhibition at 1000 µM [7, 9]	inhibition at 1000 µM ([7]; read-out: IC50)	IC50 (β-Glucosidase (Almond))	Inhibition % at 1000 μM (β-Glucosidase (Almond))	inhibition at 1000 µM [8, 9]	inhibition at 1000 µM ([8]; read-out: IC50)	IC50 (β-Mannosidase (Snail))	Inhibition % at 1000 μM (β-Mannosidase (Snail))	other results
CC(=O)NC[C@H]1N[C@H](CO)[C@@H](O)[C@@H]1O [4·HCl, 1-N-acetylamino-2,5-imino-1,2,5-trideoxy-D-mannitol hydrochloride]	1000 µM	211 µM	NI (No Inhibition (less than 50% at 1000 μM))	33.8%	1.1%	< 50%	40.6%	< 50%	1.7%	< 50%	4.7 µM	0.21 µM	3.3%	< 50%	–	–	–	–	–	–	IC50 (β-Glucosidase (Almond); read-out: IC50): 170 µM; IC50 (β-Mannosidase (Snail); read-out: IC50): 296 µM
CC(=O)NC[C@@H]1N[C@@H](CO)[C@H](O)[C@H]1O [A-10, 1-N-acetylamino-2,5-imino-1,2,5-trideoxy-L-mannitol hydrochloride]	568 µM	92 µM	NI (No Inhibition (less than 50% at 1000 μM))	2.0%	0%	< 50%	5.5%	< 50%	4.6%	< 50%	943 µM	202 µM	0%	< 50%	NI (No Inhibition (less than 50% at 1000 μM))	16.1%	1.6%	< 50%	NI (No Inhibition (less than 50% at 1000 μM))	0%	–
CC(=O)NC[C@@H]1N[C@@H](CO)[C@@H](O)[C@H]1O [C-10, 1-N-acetylamino-2,5-imino-1,2,5-trideoxy-L-altritol hydrochloride]	–	–	NI (No Inhibition (less than 50% at 1000 μM))	1.0%	0.36%	< 50%	1.9%	< 50%	0%	< 50%	–	129 µM	6.1%	< 50%	NI (No Inhibition (less than 50% at 1000 μM))	0%	1.3%	< 50%	NI (No Inhibition (less than 50% at 1000 μM))	0%	inhibition at 1000 µM (α-Glucosidase (Rice); [9]): 18.2%; inhibition at 1000 µM (α-Glucosidase (Rice); read-out: IC50): < 50%; IC50 (Rat intestinal maltase): NI (No Inhibition (less than 50% at 1000 μM)); Inhibition % at 1000 μM (Rat intestinal maltase; 1000 μM): 35.4%; IC50 [5]: NI (No Inhibition (less than 50% at 1000 μM)); Inhibition % at 1000 μM ([5]; β-N-Acetylhexosaminidase, 1000 μM): 36.3%
